Experimental data published in BindingDB's records for doi:10.1016/j.bmcl.2009.05.029 (Institute, 2009).

Assay: Inhibition of EphB2

| Compound | EC50 [nM] |
| --- | --- |
| Cc1ccc(C(=O)Nc2cccc(C(F)(F)F)c2)cc1Nc1cncc(C(N)=O)c1 [5-[(2-methyl-5-{[3-(trifluoromethyl)phenyl]carbamoyl}phenyl)amino]pyridine-3-carboxamide] | 40 |
| Cc1cn(-c2cc(NC(=O)c3ccc(C)c(NC(=O)c4ccno4)c3)cc(C(F)(F)F)c2)cn1 [N-(2-methyl-5-(3-(4-methyl-1H-imidazol-1-yl)-5-(trifluoromethyl)phenylcarbamoyl)phenyl)isoxazole-5-carboxamide] | 40 |
